Patent publication US9403834B2, “Pyrrolotriazines as potassium ion channel inhibitors” (BRISTOL-MYERS SQUIBB COMPANY, priority 2013, dated 2016)

target: T1, human Kv 1.5 (Homo sapiens, UniProt P22460); assay: block of IKur current in patch clamped L-929 cells expressing human Kv1.5; type: cell-based; conditions: 0.3 μM; patch clamped mammalian L-929 cells stably expressing IKur protein
T1 construct: expressed in transfected cells; host or cells: mammalian L-929 cells (mouse fibroblasts)
From the text: Assays to determine the degree of activity of a compound as an IKur inhibitor are well known in the art and are described in references such as J. Gen. Physiol., 101(4):513-543 (April 1993), and Br. J. Pharmacol., 115(2):267-274 (May 1995).
1. Synders, D. J. et al., “A rapidly activating and slowly inactivating potassium channel cloned from human heart: functional analysis after stable mammalian cell culture expression”, J. Gen. Physiol., 101:513-543 (1993).
2. Zhou, Z. et al., “Block of HERG potassium channels by the antihistamine astemizole and its metabolites desmethylastemizole and norastemizole”, J. Cardiovasc. Electrophysiol., 10(6):836-843 (1999).

T1 sequence (P22460 whole entry): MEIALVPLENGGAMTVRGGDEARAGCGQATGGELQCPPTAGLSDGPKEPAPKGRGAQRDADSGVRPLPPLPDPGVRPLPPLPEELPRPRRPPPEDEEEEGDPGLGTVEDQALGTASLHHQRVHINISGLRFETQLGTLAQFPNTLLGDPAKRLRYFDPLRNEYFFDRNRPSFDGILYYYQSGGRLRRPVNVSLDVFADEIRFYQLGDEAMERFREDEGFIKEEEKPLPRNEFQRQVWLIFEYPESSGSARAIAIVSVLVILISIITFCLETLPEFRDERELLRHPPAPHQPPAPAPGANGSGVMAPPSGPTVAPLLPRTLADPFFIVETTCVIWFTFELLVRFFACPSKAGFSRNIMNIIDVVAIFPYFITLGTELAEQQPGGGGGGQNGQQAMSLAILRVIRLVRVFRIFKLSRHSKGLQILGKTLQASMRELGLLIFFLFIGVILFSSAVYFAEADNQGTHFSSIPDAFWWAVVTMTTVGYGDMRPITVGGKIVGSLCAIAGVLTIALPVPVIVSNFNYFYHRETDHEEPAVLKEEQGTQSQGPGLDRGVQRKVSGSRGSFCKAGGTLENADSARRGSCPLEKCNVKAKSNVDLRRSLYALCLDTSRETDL

| Percentage inhibition of Kv1.5 in L-929 cells at 0.3 μM [%] | Compound |
| --- | --- |
| 88 | CC(Nc1nnc(-c2cncc(S(N)(=O)=O)c2)n2ccc(-c3ccccc3)c12)c1ccccn1 (single isomer, unassigned) [Example 5, 5-(8-phenyl-1-(1-(pyridin-2-yl)ethylamino)pyrrolo[1,2-d][1,2,4]triazin-4-yl)pyridine-3-sulfonamide] |

same assay, conditions: L929, 0.3 μM; patch clamped mammalian L-929 cells stably expressing IKur protein; read-out: Percentage inhibition of Kv1.5 in L-929 cells at 0.3 μM

| inhibition at 0.3 µM [%] | Compound |
| --- | --- |
| 91 | NS(=O)(=O)c1cncc(-c2nnc(Nc3cccc(F)c3)c3c(-c4ccccc4)ccn23)c1 [Example 2, 5-(1-(3-Fluorophenylamino)-8-phenylpyrrolo[1,2-d][1,2,4]triazin-4-yl)pyridine-3-sulfonamide] |
| 95 | NS(=O)(=O)c1cc(-c2nnc(NCc3ccccn3)c3c(-c4ccccc4)ccn23)cnc1C(F)F [Example 3, 2-(Difluoromethyl)-5-(8-phenyl-1-(pyridin-2-ylmethylamino)pyrrolo[1,2-d][1,2,4]triazin-4-yl)pyridine-3-sulfonamide] |
| 98 | NS(=O)(=O)c1cncc(-c2nnc(NCc3ncccc3F)c3c(-c4ccccc4)ccn23)c1 [Example 7, 5-(1-(((3-fluoropyridin-2-yl)methyl)amino)-8-phenylpyrrolo[1,2-d][1,2,4]triazin-4-yl)pyridine-3-sulfonamide] |
| 92 | CC(Nc1nnc(-c2cncc(S(N)(=O)=O)c2)n2ccc(-c3ccccc3)c12)c1ccccn1 (single isomer, unassigned) [Example 6, 5-(8-phenyl-1-(1-(pyridin-2-yl)ethylamino)pyrrolo[1,2-d][1,2,4]triazin-4-yl)pyridine-3-sulfonamide] |
| 92 | NS(=O)(=O)c1cncc(-c2nnc(NCc3c(F)cccc3F)c3c(-c4ccccc4)ccn23)c1 [Example 9, 5-(1-(2,6-difluorobenzylamino)-8-phenylpyrrolo[1,2-d][1,2,4]triazin-4-yl)pyridine-3-sulfonamide] |
| 93 | NS(=O)(=O)c1cncc(-c2nnc(NCc3ccccc3F)c3c(-c4ccccc4)ccn23)c1 [Example 8, 5-(1-(2-fluorobenzylamino)-8-phenylpyrrolo[1,2-d][1,2,4]triazin-4-yl)pyridine-3-sulfonamide] |
| 89 | NS(=O)(=O)c1cncc(-c2nnc(NCc3ccccc3)c3c(-c4ccccc4)ccn23)c1 [Example 1, 5-(1-(Benzylamino)-8-phenylpyrrolo[1,2-d][1,2,4]triazin-4-yl)pyridine-3-sulfonamide] |
| 86 | NS(=O)(=O)c1cncc(-c2nnc(NCc3ccccn3)c3c(-c4ccccc4)ccn23)c1 [Example 4, 5-(8-phenyl-1-(pyridin-2-ylmethylamino)pyrrolo[1,2-d][1,2,4]triazin-4-yl)pyridine-3-sulfonamide] |
